The results in this text go back to patent publication US20240284907A1, “NOVEL DERIVATIVES OF NON-CODED AMINO ACIDS AND THEIR USE AS HERBICIDES” (FortePhest LTD., priority 2021, published 2024).

Holding throughout (type): in vivo
Test [1] deals with Seeds of Lettuce R. (Super-Jericho). Description: Filter paper bioassay with lettuce seeds: germination and early plant development, Minimal Effective Concentration (MEC). As to conditions: lettuce seeds on filter paper, 0 to 1 mmol/l, visually assessed after 6 days. In outline:
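Visual scoring on day 6 of radicle and shoot growth gives the MEC, the lowest dose deviating from control (no germination or malformation). Seeds (lettuce Super-Jericho, 10 per plate) sat on filter paper with 0–1 mmol/l aqueous compound, 48 h dark then 4 days 6/18 dark/light, in at least two repeats.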

Test [2] concerns Romaine lettuce (Lactuca sativa L.) plants. Description: Post-emergence herbicidal activity on potted Romaine lettuce plants (soil or foliar application). As to conditions: lettuce at 2 to 3 leaves, two weeks after treatment. The method, then: (§1) The tests were performed on Romaine lettuce (Lactuca sativa L.) plants at the stage 2 to 3 leaves. The plants were grown in mini-pots packed with soil, dimensions 2×2×5 cm, one plant per mini-pot. Test compounds were dissolved in 0.1% aqueous solution water solution of Silwet adjuvant to final concentrations ranging from 0 (Control) to 0.0001%. The test compounds were applied on soil (1 ml per pot) or foliar with airbrush (0.1 ml per pot). Each concentration was tested on 20 plants. Two weeks after the treatment the herbicidal effects of the respective test material were visually evaluated (aboveground part and roots. Then the aboveground part of the plants was neatly cut and weighed (wet weight) to assess the growth inhibition caused by the test compound. The growth inhibition (GI) was calculated as following: […]
Where Mt and Mc are median wet weight of treated and control plants, respectively. In the context of the invention, the herbicidal effect was assessed by concentration of the compound causing more than 85% of Growth Inhibition (GI) or irreversible damage of the plants (Table 3). Herbicidal activity of selected DHAAs is summarized in Table 4 (soil application) and Table 5 (Foliar application).

Test [3] deals with Seeds of Lettuce R. (Super-Jericho). Description: Filter paper bioassay with lettuce seeds: germination, Fully Effective Concentration (FEC). As to conditions: lowest concentration mostly preventing lettuce seed germination, assessed after 6 days. An excerpt: Materials: Seeds of Lettuce R. (Super-Jericho, non-sterilized) were obtained from Ben Shahar Moshe Ltd., 99% purity. The test compounds listed in the Table 2 below were synthetized de novo or purchased from different vendors.
Filter Paper Bioassays with Lettuce seeds: The protocol is following Bertin et al. 2009 and Movellan et al. 2014 with specified modifications as described below.
Seeds were placed on Whatman no. 1 filter paper (Whatman, Middlesex, U.K.) in Petri dishes (10 seeds per plate) with 2.0 ml of aqueous solution of a test material in concentration ranged from 0 (control) to 1 mmol/l were placed in a tray tilted at 45°. The trays were kept in dark for 48 hours and then transferred to the growth chamber with 6/18 dark/light cycle for 4 days. Each experiment was performed at least with two repeats.
The development of plants' radicle and shoots were visually assessed 6 days after the beginning of the test to determine Fully Effective Concentration (FEC) of a test material. In the context of the invention, FED is defined as the lowest concentration level of a test material that mostly preventing seeds germination.

The test system of test [4] is Romaine lettuce (Lactuca sativa L.) plants. Description: Comparison of NAA and DNAA: growth inhibition of potted Romaine lettuce plants. The conditions noted are these: two weeks after treatment. The method, then:
as §1, with “adjuvant. The test material where applied in rate” for “adjuvant to final concentrations ranging from”, “(Control), 0.01, 0.05, and 0.5 mg/pot.” for “(Control) to 0.0001%.”, “soil” for “soil (1 ml per pot)”
Where Mt and Mc are median wet weight of treated and control plants, respectively.

The mark [5] stands for this setting: foliar application, 0.05 mg/pot.
The mark [6] stands for this setting: foliar application, 0.50 mg/pot.

Take “2-(2-chlorothiophen-3-yl)-2,2-difluoroacetic acid [compound 5623]”: the “Score (activity score of Minimal Effective Concentration, MEC)” value in test [1] is “Strong (0.01 mM)”. The “Score (test material causing more than 85% of Growth Inhibition or irreversible plant damage)” value in test [2] (foliar application) and in test [2] (soil application) was “strong (0.01 to 0.05)” each time. The “FEC (Fully Effective Concentration)” value in test [3] is 1.000 mM. The “Herbicidal effect, growth application (%)” value (shortened to “Herbicidal effect … (%)”) is 91% in test [4] (setting [5]); 97% in test [4] (setting [6]); 34% in test [4] (soil application, 0.01 mg/pot); 79% in test [4] (soil application, 0.05 mg/pot); 98% in test [4] (soil application, 0.50 mg/pot).

Consider `NC(Cc1ccnc(Br)c1)C(=O)O` (centres unmarked) [compound 632], for which the “Herbicidal effect … (%)” value in test [4] (setting [5]) amounted to 0%; in test [4] (setting [6]), 8%; in test [4] (soil application, 0.01 mg/pot), 0%; in test [4] (soil application, 0.05 mg/pot), 13%; in test [4] (soil application, 0.50 mg/pot), 21%.

For “2-(2-bromo-1,3-thiazol-4-yl)-2,2-difluoroacetic acid [compound 5730]”, in test [1], the “Score (activity score of Minimal Effective Concentration, MEC)” value is given as “very strong”. Further, the “Score (test material causing more than 85% of Growth Inhibition or irreversible plant damage)” value in test [2] (foliar application) and in test [2] (soil application) was “strong (0.01 to 0.05)” each time. Also, the “FEC (Fully Effective Concentration)” value in test [3] amounted to 0.010 mM.

“2-(4-methylphenyl)-2-oxoethyl(2-chloro-1,3-thiazol-4-yl)(difluoro)acetate [compound 5738]”: the “Score (activity score of Minimal Effective Concentration, MEC)” value in test [1] is given as “very strong”. For the same compound, the “Score (test material causing more than 85% of Growth Inhibition or irreversible plant damage)” value is recorded as “moderate (0.5)” in test [2] (foliar application) and “strong (0.01 to 0.05)” in test [2] (soil application). The “FEC (Fully Effective Concentration)” value in test [3] is reported as 0.010 mM.

In the case of “ethyl(2,5-dichloro-1,3-thiazol-4-yl)(difluoro)acetate [compound 5655]”, in test [1], the “Score (activity score of Minimal Effective Concentration, MEC)” value is reported as “Strong (0.01 mM)”. The “Score (test material causing more than 85% of Growth Inhibition or irreversible plant damage)” value in test [2] (foliar application) and in test [2] (soil application) was “strong (0.01 to 0.05)” in each case. Moreover, the “FEC (Fully Effective Concentration)” value in test [3] was found to be 1.000 mM.

Consider “(2-bromophenyl)methyl(2,5-dichlorothiophen-3-yl)(difluoro)acetate [compound 5772]”, for which, in test [1], the “Score (activity score of Minimal Effective Concentration, MEC)” value is recorded as “Strong (0.01 mM)”. For the same compound, the “Score (test material causing more than 85% of Growth Inhibition or irreversible plant damage)” value is given as “moderate (0.5)” in test [2] (foliar application) and “strong (0.01 to 0.05)” in test [2] (soil application). For the same compound, the “FEC (Fully Effective Concentration)” value in test [3] came to 0.500 mM.

On to “(2-bromophenyl)methyl(2,5-dichlorothiophen-3-yl)(difluoro)acetate [compound 5747]”, for which, in test [1], the “Score (activity score of Minimal Effective Concentration, MEC)” value is recorded as “very strong”. Moreover, the “Score (test material causing more than 85% of Growth Inhibition or irreversible plant damage)” value in test [2] (foliar application) and in test [2] (soil application) was “moderate (0.5)” in each case. The “FEC (Fully Effective Concentration)” value in test [3] is given as 0.500 mM.

`NC(Cc1nc(Cl)sc1Cl)C(=O)O` (centres unmarked) [compound 527]: the “Herbicidal effect … (%)” value is on record as 0% in test [4] (setting [5]); 44% in test [4] (setting [6]); 0% in test [4] (soil application, 0.01 mg/pot); 11% in test [4] (soil application, 0.05 mg/pot); 90% in test [4] (soil application, 0.50 mg/pot).

As for `NC(Cc1ccsc1Cl)C(=O)O` (centres unmarked) [compound 516], the “Herbicidal effect … (%)” value in test [4] (setting [5]) came out at 0%; in test [4] (setting [6]) it was 0%; in test [4] (soil application, 0.01 mg/pot) it was 0%; in test [4] (soil application, 0.05 mg/pot), 0%; in test [4] (soil application, 0.50 mg/pot), 38%.

As for `NC(Cc1cc(Cl)sc1Cl)C(=O)O` (centres unmarked) [compound 517], the “Herbicidal effect … (%)” value in test [4] (setting [5]) is recorded as 0%; in test [4] (setting [6]), 29%; in test [4] (soil application, 0.01 mg/pot), 0%; in test [4] (soil application, 0.05 mg/pot), 25%; in test [4] (soil application, 0.50 mg/pot), 75%.

Regarding “3-(2-chlorothiophen-3-yl)-3,3-difluoro-2-hydroxypropanenitrile [compound 5761]”, in test [1], the “Score (activity score of Minimal Effective Concentration, MEC)” value was “Strong (0.01 mM)”. For the same compound, the “Score (test material causing more than 85% of Growth Inhibition or irreversible plant damage)” value in test [2] (soil application) is reported as “strong (0.01 to 0.05)”. For the same compound, the “FEC (Fully Effective Concentration)” value in test [3] came to 0.100 mM.

Consider `O=C(OCc1ccccc1)C(F)(F)c1cc(Cl)sc1Cl` [compound 5709, benzyl(2,5-dichlorothiophen-3-yl)(difluoro)acetate], for which the “Score (activity score of Minimal Effective Concentration, MEC)” value in test [1] is “very strong”. For the same compound, in test [2] (foliar application), the “Score (test material causing more than 85% of Growth Inhibition or irreversible plant damage)” value is reported as “moderate (0.5)”. In addition, the “FEC (Fully Effective Concentration)” value in test [3] is 0.100 mM.

Take `NCCc1cc(Cl)sc1Cl` [compound 584, 2-(2,5-dichlorothiophen-3-yl) ethan-1-amine]: the “Score (activity score of Minimal Effective Concentration, MEC)” value in test [1] is listed as “moderate”. Further, the “Score (test material causing more than 85% of Growth Inhibition or irreversible plant damage)” value in test [2] (soil application) is on record as “weak (1.0)”. The “FEC (Fully Effective Concentration)” value in test [3] came to 0.500 mM.

With `O=C(O)C(F)(F)c1ccsc1C(F)(F)F` [compound 5728, difluoro[2-(trifluoromethyl)thiophen-3-yl]acetic acid], the “Score (activity score of Minimal Effective Concentration, MEC)” value in test [1] was “Strong (0.01 mM)”. Moreover, the “Score (test material causing more than 85% of Growth Inhibition or irreversible plant damage)” value in test [2] (foliar application) and in test [2] (soil application) was “strong (0.01 to 0.05)” in each case. In addition, the “FEC (Fully Effective Concentration)” value in test [3] came out at 1.000 mM.
